Experimental data reported in patent publication US9949475B2, “Composition comprising active ingredient, oil and ionic liquid” (priority 2011, dated 2018).
In brackets after ≈: the same amount, converted by molar mass. Where two headings read alike, the source gives them in different places.

Test: Solubility of agrochemical active ingredient in oil comprising ionic liquid
Format: physicochemical
Conditions: for solubility: 21 °C, thermodynamic from solid
Text: Alternatively, the oil, which comprised the ionic liquid, was saturated with the active ingredient and the soluble fraction of active ingredient was quantified by means of HPLC. In the first line of the tables, in each case the weight ratios of oil to IL are given.

Solubility of fluxapyroxad with Agnique AMD 12 ® (N,N-dimethyldodecanamide, lauryl N,N-dimethylamide) as oil (21° C., Oil/IL 20/80 weight ratio, IL N-butyl-N′-methylimidazolium acetate): 43.1 mg/mL
Solubility of fluxapyroxad with Agnique AMD 12 ® (N,N-dimethyldodecanamide, lauryl N,N-dimethylamide) as oil (21° C., Oil/IL 20/80 weight ratio, IL N-ethyl-N′-methylimidazolium acetate): 39.5 mg/mL
Solubility of fluxapyroxad with Agnique AMD 12 ® (N,N-dimethyldodecanamide, lauryl N,N-dimethylamide) as oil (21° C., Oil/IL 20/80 weight ratio, IL N-ethyl-N′-methylimidazolium isononanoate): 38.4 mg/mL
Solubility of fluxapyroxad with Agnique AMD 12 ® (N,N-dimethyldodecanamide, lauryl N,N-dimethylamide) as oil (21° C., Oil/IL 20/80 weight ratio, IL Tetrabutylammonium [2-(2-methoxyethoxy)ethoxy]acetate): 37.5 mg/mL
Solubility of fluxapyroxad with Agnique AMD 12 ® (N,N-dimethyldodecanamide, lauryl N,N-dimethylamide) as oil (21° C., Oil/IL 60/40 weight ratio, IL N-butyl-N′-methylimidazolium acetate): 55.9 mg/mL
Solubility of fluxapyroxad with Agnique AMD 12 ® (N,N-dimethyldodecanamide, lauryl N,N-dimethylamide) as oil (21° C., Oil/IL 60/40 weight ratio, IL N-ethyl-N′-methylimidazolium acetate): 40.4 mg/mL
Solubility of fluxapyroxad with Agnique AMD 12 ® (N,N-dimethyldodecanamide, lauryl N,N-dimethylamide) as oil (21° C., Oil/IL 60/40 weight ratio, IL N-ethyl-N′-methylimidazolium isononanoate): 48.1 mg/mL
Solubility of fluxapyroxad with Agnique AMD 12 ® (N,N-dimethyldodecanamide, lauryl N,N-dimethylamide) as oil (21° C., Oil/IL 60/40 weight ratio, IL Tetrabutylammonium [2-(2-methoxyethoxy)ethoxy]acetate): 33.1 mg/mL
Solubility of fluxapyroxad with Agnique AMD 12 ® (N,N-dimethyldodecanamide, lauryl N,N-dimethylamide) as oil (21° C., Oil/IL 90/10 weight ratio, IL N-ethyl-N′-methylimidazolium acetate): 38.2 mg/mL
Solubility of fluxapyroxad with Agnique AMD 12 ® (N,N-dimethyldodecanamide, lauryl N,N-dimethylamide) as oil (21° C., Oil/IL 90/10 weight ratio, IL Tetrabutylammonium [2-(2-methoxyethoxy)ethoxy]acetate): 29.7 mg/mL
solubility (oil or lipid, 21° C., Oil/IL 20/80 weight ratio, IL N-ethyl-N′-ethylimidazolium propionate, read-out: Solubility of fluxapyroxad with Solvesso ® 200 ND as oil): 39.4 mg/mL
solubility (oil or lipid, 21° C., Oil/IL 20/80 weight ratio, IL N-ethyl-N′-methylimidazolium isononanoate, read-out: Solubility of fluxapyroxad with Solvesso ® 200 ND as oil): 28.6 mg/mL
solubility (oil or lipid, 21° C., Oil/IL 60/40 weight ratio, IL N-ethyl-N′-ethylimidazolium propionate, read-out: Solubility of fluxapyroxad with Solvesso ® 200 ND as oil): 50.5 mg/mL
solubility (oil or lipid, 21° C., Oil/IL 60/40 weight ratio, IL N-ethyl-N′-methylimidazolium isononanoate, read-out: Solubility of fluxapyroxad with Solvesso ® 200 ND as oil): 42.9 mg/mL
solubility (oil or lipid, 21° C., Oil/IL 90/10 weight ratio, IL N-ethyl-N′-ethylimidazolium propionate, read-out: Solubility of fluxapyroxad with Solvesso ® 200 ND as oil): 21.3 mg/mL
solubility (oil or lipid, 21° C., Oil/IL 90/10 weight ratio, IL N-ethyl-N′-methylimidazolium isononanoate, read-out: Solubility of fluxapyroxad with Solvesso ® 200 ND as oil): 15.3 mg/mL
solubility (oil or lipid, 21° C., Oil/IL 90/10 weight ratio, IL Tetrabutylammonium [2-(2-methoxyethoxy)ethoxy]acetate, read-out: Solubility of fluxapyroxad with Solvesso ® 200 ND as oil): 18.4 mg/mL
solubility (oil or lipid, Solubility of fluxapyroxad with Agnique AMD 12 ® (N,N-dimethyldodecanamide, lauryl N,N-dimethylamide) as oil): 25.9 mg/mL (≈ 67.9 mM)
solubility (organic solvent or mixture, 21° C., 100 IL (no oil), IL N-ethyl-N′-methylimidazolium isononanoate, read-out: Solubility of fluxapyroxad with Cetiol ® B as oil): 9.5 mg/mL (≈ 24.9 mM)
solubility (organic solvent or mixture, 21° C., 100 IL (no oil), IL N-ethyl-N′-methylimidazolium isononanoate, read-out: Solubility of fluxapyroxad with Solvesso ® 200 ND as oil): 9.5 mg/mL (≈ 24.9 mM)
solubility (organic solvent or mixture, 21° C., 100 IL (no oil), IL Tetrabutylammonium [2-(2-methoxyethoxy)ethoxy]acetate, read-out: Solubility of fluxapyroxad with Solvesso ® 200 ND as oil): 9.5 mg/mL (≈ 24.9 mM)
solubility (organic solvent or mixture, Solubility of fluxapyroxad with Agnique AMD 12 ® (N,N-dimethyldodecanamide, lauryl N,N-dimethylamide) as oil): 5 mg/mL (≈ 13.1 mM)
solubility (organic solvent or mixture, Solubility of fluxapyroxad with Cetiol ® B as oil): 5 mg/mL (≈ 13.1 mM)
solubility (organic solvent or mixture, Solubility of fluxapyroxad with Solvesso ® 200 ND as oil): 5 mg/mL (≈ 13.1 mM)
solubility (Cetiol B / N-ethyl-N′-methylimidazolium isononanoate mixture, oil or lipid, 21° C., Oil/IL 20/80 weight ratio, IL N-ethyl-N′-methylimidazolium isononanoate, read-out: Solubility of fluxapyroxad with Cetiol ® B as oil): 48.7 mg/mL
solubility (Cetiol B / N-ethyl-N′-methylimidazolium isononanoate mixture, oil or lipid, 21° C., Oil/IL 60/40 weight ratio, IL N-ethyl-N′-methylimidazolium isononanoate, read-out: Solubility of fluxapyroxad with Cetiol ® B as oil): 46.7 mg/mL
solubility (Cetiol B / N-ethyl-N′-methylimidazolium isononanoate mixture, oil or lipid, 21° C., Oil/IL 90/10 weight ratio, IL N-ethyl-N′-methylimidazolium isononanoate, read-out: Solubility of fluxapyroxad with Cetiol ® B as oil): 20.7 mg/mL
solubility (Cetiol B / cholinium octanoate mixture, oil or lipid, 21° C., Oil/IL 20/80 weight ratio, IL Cholinium octanoate, read-out: Solubility of fluxapyroxad with Cetiol ® B as oil): 34.2 mg/mL
solubility (Cetiol B oil comprising ionic liquid, oil or lipid, 21° C., Oil/IL 20/80 weight ratio, IL N-butyl-N′-methylimidazolium acetate, read-out: Solubility of fluxapyroxad with Cetiol ® B as oil): 54.9 mg/mL
solubility (Cetiol B oil comprising ionic liquid, oil or lipid, 21° C., Oil/IL 20/80 weight ratio, IL N-butyl-N′-methylimidazolium dimethylphosphate, read-out: Solubility of fluxapyroxad with Cetiol ® B as oil): 44.1 mg/mL
solubility (Cetiol B oil comprising ionic liquid, oil or lipid, 21° C., Oil/IL 20/80 weight ratio, IL N-ethyl-N′-ethylimidazolium propionate, read-out: Solubility of fluxapyroxad with Cetiol ® B as oil): 60.2 mg/mL
solubility (Cetiol B oil comprising ionic liquid, oil or lipid, 21° C., Oil/IL 20/80 weight ratio, IL N-ethyl-N′-methylimidazolium acetate, read-out: Solubility of fluxapyroxad with Cetiol ® B as oil): 56.2 mg/mL
solubility (Cetiol B oil comprising ionic liquid, oil or lipid, 21° C., Oil/IL 20/80 weight ratio, IL N-ethyl-N′-methylimidazolium dibutylphosphate, read-out: Solubility of fluxapyroxad with Cetiol ® B as oil): 16.8 mg/mL
solubility (Cetiol B oil comprising ionic liquid, oil or lipid, 21° C., Oil/IL 20/80 weight ratio, IL N-ethyl-N′-methylimidazolium heptanoate, read-out: Solubility of fluxapyroxad with Cetiol ® B as oil): 28.4 mg/mL
solubility (Cetiol B oil comprising ionic liquid, oil or lipid, 21° C., Oil/IL 20/80 weight ratio, IL N-ethyl-N′-methylimidazolium octanoate, read-out: Solubility of fluxapyroxad with Cetiol ® B as oil): 25.7 mg/mL
solubility (Cetiol B oil comprising ionic liquid, oil or lipid, 21° C., Oil/IL 20/80 weight ratio, IL N-propyl-N′-propylimidazolium acetate, read-out: Solubility of fluxapyroxad with Cetiol ® B as oil): 59.2 mg/mL
solubility (Cetiol B oil comprising ionic liquid, oil or lipid, 21° C., Oil/IL 20/80 weight ratio, IL Tetrabutylammonium [2-(2-methoxyethoxy)ethoxy]acetate, read-out: Solubility of fluxapyroxad with Cetiol ® B as oil): 38.3 mg/mL
solubility (Cetiol B oil comprising ionic liquid, oil or lipid, 21° C., Oil/IL 60/40 weight ratio, IL Cholinium octanoate, read-out: Solubility of fluxapyroxad with Cetiol ® B as oil): 33.6 mg/mL
solubility (Cetiol B oil comprising ionic liquid, oil or lipid, 21° C., Oil/IL 60/40 weight ratio, IL N-butyl-N′-methylimidazolium acetate, read-out: Solubility of fluxapyroxad with Cetiol ® B as oil): 50.6 mg/mL
SMILES: Cn1cc(C(=O)Nc2ccccc2-c2cc(F)c(F)c(F)c2)c(C(F)F)n1 [fluxapyroxad, 3-(difluoromethyl)-1-methyl-N-(3′,4′,5′-trifluorobiphenyl-2-yl)pyrazole-4-carboxamide]
